Experimental data from US9468670B2, “Melatonin-based treatment and diagnosis of bile duct disease” (Texas A&M University System, priority 2011, dated 2016).

Columns and labels:
large cholangiocytes [1] = test: Bile duct mass, PCNA-positive cholangiocytes and apoptosis (TUNEL) in liver sections; type: in vivo, rat
Protocol: Male 344 Fischer rats (150-175 g) were purchased from Charles River (Wilmington, Mass.) and kept in a temperature-controlled environment (22° C.) with 12:12 hr light/dark cycles. Animals were fed ad libitum and had free access to food and drinking water. […] Before each surgical procedure, animals were anesthetized with sodium pentobarbital (50 mg/kg BW, IP). All animal experiments were performed in accordance with a protocol approved by the Scott and White and Texas A&M Health Science Center Institutional Animal Care and Use Committee and conform to the Guide for the Care and Use of Laboratory Animals published by the US National Institutes of Health (NIH Publication No. 85-23, revised 1996). In all animals, wet liver weight, body weight, wet liver weight to body weight ratio, and an index of liver cell growth including cholangiocytes were measured ([…] et al., 1988). The following was also evaluated in paraffin-embedded liver sections ([…]): (i) lobular necrosis; (ii) the intrahepatic bile duct mass (IBDM) of large (>[…]) ([…] et al., 1997; Glaser et al., 2009) cholangiocytes, the only biliary cell types proliferating following […] et al., 1998; Glaser et al., 2009) and (iii) the percentage of cholangiocyte apoptosis by semiquantitative terminal deoxynucleotidyltransferase biotin-dUTP nick-end labeling (TUNEL) kit (Apoptag; Chemicon International, Inc.) (Glaser et al., 2010). Lobular necrosis was measured in liver sections stained for hematoxylin and eosin (Glaser et al., 2010). […] The IBDM was measured as area occupied by CK-19 positive-bile duct/total area×100 (Glaser et al., 2010). It was also evaluated by H&E of sections if melatonin administration induces the damage of kidney, heart, stomach, spleen and small and large intestine of normal and BDL rats. The sections from the selected were evaluated in a blinded-fashion by two board-certified pathologists by a BX-51 light microscope (Olympus, Tokyo, Japan) equipped with a camera.

large cholangiocytes [2] = test: PCNA expression and PKA, ERK1/2 phosphorylation (immunoblots) in purified large cholangiocytes from treated BDL rats; type: in vivo, rat
Protocol: Cholangiocyte proliferation was evaluated by immunoblots (Francis et al., 2008) by determination of PCNA protein expression (measured as ratio to b-actin protein expression) (Francis et al., 2008), and the phosphorylation of cAMP-dependent PKA and ERK1/2 (expressed as ratio to protein expression of the corresponding total proteins) in protein ([…]) from whole cell lysate from spleen (positive control) and large cholangiocytes from BDL rats treated with vehicle or melatonin. The intensity of the bands was determined by scanning video densitometry using the phospho-imager Storm 860 and the ImageQuant TL software version 2003.02 (GE Healthcare).

CCA lines = test: Proliferation by MTS assay in CCA lines and H69; type: cell-based, human; conditions: melatonin 10-7 to 10-11 M, 24-72 hours
Protocol: Methods: Melatonin immunoreactivity, the expression of melatonin biosynthesis enzymes and receptors were assessed by immunohistochemistry in tissue arrays from normal and CCA patients, and by qPCR and immunoblots in intra-hepatic and extra-hepatic CCA cell lines, and a normal cholangiocyte line (H69). Proliferation was evaluated in vitro by MTS assay in CCA lines and H69 after treatment with melatonin (10-7 to 10-11 M, 24-72 hours). In parallel, the expression of CLOCK after melatonin treatment (10-11 M for 48 hours) was assessed in CCA lines and normal cholangiocytes by qPCR.

AANAT = AANAT morpholino in normal rats with or without CCl4 (liver sections, qPCR, immunoblots); type: in vivo, rat
Protocol: Methods: Normal rats were treated for 1 wk with AANAT morpholino (to reduce the biliary expression of AANAT) or scrambled morpholino (1 mg/kg BW/day) by a portal vein catheter before receiving a single dose of mineral oil or CCl4 (0.4 ml by gavage 1:1 in mineral oil/100 gm BW). Two days later, in liver sections the following was evaluated: (i) the hepatic expression of AANAT; and (ii) the percentage of TUNEL-positive cholangiocytes, and IBDM. In total liver tissue, the quantitative expression of AANAT, PCNA, Bax and Bcl-2 was studied by qPCR and immunoblots. In mouse cholangiocyte lines (NMC) stably overexpressing AANAT the expression of AANAT and CLOCK genes, melatonin secretion and biliary growth were studied after 48 hr incubation.

[3] = tested on: SR, CFTR, Cl−/HCO3− AE2, VEGF-A/C; test: Expression of PCNA, SR, CFTR, Cl−/HCO3− AE2, VEGF-A/C in liver sections, liver tissue and cholangiocytes of Morpholino-treated rats; type: in vivo, rat; conditions: normal rats, 1 week
Protocol: In separate experiments, normal rats treated with Vivo-Morpholino sequences of AANAT (5′-[…] (SEQ ID NO:1), to reduce the biliary expression of AANAT) or Morpholino mismatched (5′-[…] (SEQ ID NO:2)) (Gene Tools LCC) (1 mg/Kg BW/day) for 1 week via an implanted portal vein catheter. Serum, liver tissue, cholangiocytes, kidney, spleen, small intestine, stomach and heart were collected. Since our goal was to knock-down AANAT expression in the liver without inhibiting AANAT expression in other organs, we used a lower dose (1 mg/Kg/day) of Vivo-Morpholino than that described in the original study (3.0 mg/kg/day (Arora et al., 2002). This approach minimizes the amount of Vivo-Morpholino that circulates outside of the liver after slow infusion into the portal vein. See below for the surgical procedure for the implantation of the portal vein catheter by which AANAT Vivo-Morpholino or Morpholino mismatched was administered.
By real-time PCR (Francis et al., 2008), the expression of PCNA, SR, CFTR, Cl^−/HCO3^− AE2, VEGF-A/C was evaluated in total RNA from: (i) cholangiocytes from normal rats, and BDL rats treated with melatonin; and (ii) liver tissue and cholangiocytes from rats treated with mismatch or AANAT Vivo-Morpholino for 1 week. A ΔΔCT analysis was obtained using normal cholangiocytes or normal total liver as control samples (Francis et al., 2008). The primers for rat PCNA, SR, CFTR, Cl^−/HCO3^− AE2, VEGF-A/C (SABiosciences) were designed according to the NCBI GenBank Accession numbers: NM_022381 (PCNA); NM_031115 (SR); NM_017048 (Cl^−/HCO3^− AE2); XM_001059206 (CFTR); NM_031836 (VEGF-A); and NM_053653 (VEGF-C). The percentage of cholangiocytes positive for SR, CFTR, Cl^−/HCO3^− AE2 and VEGF-A/C was evaluated in liver sections: when 0%-5% of bile ducts were positive a negative score was assigned; a +/−score was assigned when 6%-10% of ducts were positive; a +score was assigned when 11%-30% of bile ducts were positive (Glaser et al., 2009).

[4] = BDL rats vs. corresponding control rats
[5] = normal rats vs. scrambled morpholino

Molecule	Cholangiocyte apoptosis (large cholangiocytes [1]; BDL rats)	Large BDM (bile duct mass) (large cholangiocytes [1]; [4])	Percentage of PCNA-positive large cholangiocytes (large cholangiocytes [1]; [4])	Effects on bile duct mass, PCNA-positive cholangiocytes and apoptosis (large cholangiocytes [1]; normal rats)	PCNA expression in large cholangiocytes (large cholangiocytes [2]; melatonin-treated BDL rats vs. BDL control rats)	Phosphorylation of cAMP-dependent PKA and ERK2 (but not ERK1) in large cholangiocytes (large cholangiocytes [2]; melatonin-treated BDL rats vs. BDL controls)	Decrease in CCA growth compared to normal cholangiocytes (CCA lines) [%]	AANAT expression in liver tissue (AANAT; [5])	PCNA expression in liver tissue (AANAT; [5])	IBDM (AANAT; normal rats, 1 mg/kg BW/day for 1 wk by portal vein catheter, vs. controls)	Biliary apoptosis in response to CCl4 (AANAT; rats, 1 mg/kg BW/day for 1 wk then single dose of CCl4)	Immunoreactivity of cholangiocytes to CFTR [3]	Immunoreactivity of cholangiocytes to Cl−HCO3− AE2 [3]	Immunoreactivity of cholangiocytes to SR [3]	Immunoreactivity of cholangiocytes to VEGF-A [3]	Immunoreactivity of cholangiocytes to VEGF-C [3]
COc1ccc2[nH]cc(CCNC(C)=O)c2c1 [melatonin]	enhanced	decreased	decreased	no effects	decreased	decreased	65									
AANAT Vivo-Morpholino: Vivo-Morpholino sequence of AANAT 5′-GTTCCCCAGCTTTGGAAGTGGTCCC (SEQ ID NO:1), to reduce the biliary expression of AANAT (all phosphorodiamidate morpholino (PMO); Vivo-Morpholino delivery moiety attached, position not given here, further chemistry not fully specified)								decreased	increased	enhanced	absence	+ (a +score was assigned when 11%-30% of bile ducts were positive)	+ (a +score was assigned when 11%-30% of bile ducts were positive)	+ (a +score was assigned when 11%-30% of bile ducts were positive)	+ (a +score was assigned when 11%-30% of bile ducts were positive)	+ (a +score was assigned when 11%-30% of bile ducts were positive)
